Measurements: ChEMBL document CHEMBL3638605, “N-hydroxy-benzamids for the treatment of cancer” (2014)

Molecular target: T1, Histone deacetylase 8 (Homo sapiens, UniProt Q9BY41)
T1 sequence (Q9BY41 whole entry): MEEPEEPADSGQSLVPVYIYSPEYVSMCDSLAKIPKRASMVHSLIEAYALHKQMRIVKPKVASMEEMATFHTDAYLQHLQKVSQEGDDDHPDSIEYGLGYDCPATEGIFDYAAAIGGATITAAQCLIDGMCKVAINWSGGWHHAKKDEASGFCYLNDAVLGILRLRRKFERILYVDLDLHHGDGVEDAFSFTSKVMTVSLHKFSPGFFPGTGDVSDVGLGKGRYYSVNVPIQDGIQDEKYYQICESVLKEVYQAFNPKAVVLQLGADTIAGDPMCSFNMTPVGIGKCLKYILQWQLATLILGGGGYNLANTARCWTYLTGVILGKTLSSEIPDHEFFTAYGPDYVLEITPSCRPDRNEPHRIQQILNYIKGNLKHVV
Test: Fluorometric Assay: Compounds were tested for their ability to inhibit histone deacetylase 8 using an in vitro deacetylation assay. In a detailed procedure, 8 μl of HDAC8 enzyme solution (0.125 μg/μl) was transferred to assay plates (CORNING 3676). 1 μl of half-log diluted compounds were added into wells and incubated for 15 min at rt. After that, 8 μl of substrate solution was transferred to the wells and incubated for 30 min at rt. After deacetylation of the substrate by incubation with HDAC8 enzyme, subsequent exposure to a developing reagent produced a fluorophore that was directly proportional to the level of deacetylation. So 4 μl of developer regent (Cayman 10006394) was added into the wells in the assay plates and incubated for 15 min. The fluorescence signal was measured by a FlexStation3 plate reader (excitation wave length 340-360 nm; emission wave length 440-465 nm).

- IC50: 0.47 µM
Structure (SMILES): O=C(NO)c1ccc2c(c1)CC(Nc1nccc(-c3cccnc3)n1)CN2 (stereo unspecified)
